From patent publication US20120003183A1, “ADDITION SALTS OF TROMETHAMINE WITH AZABIPHENYLAMINOBENZOIC ACID DERIVATIVES AS DHODH INHIBITORS” (priority 2009, published 2012)
Structures can show the parent of a compound that is named as a salt.

Tests used:
Assay type in all cases: physicochemical
Water-solubility test = conditions: for Water Solubility @ 25° C. (mg/mL as acid): 25° C. (room temperature)
Procedure: The solubility of the of Examples 1-3 in water at room temperature was determined together with the solubility of the corresponding free acids.

[1] = Dynamic Vapour Sorption (DVS) moisture sorption/desorption; conditions: for Mass increase at 80% relative humidity (DVS): 80% RH; for Mass increase at 90% relative humidity (DVS): 90% RH; for Hygroscopicity / Hysteresis in DVS sorption/desorption: result in words
Procedure: Dynamic Vapour Sorption (DVS) profiles were obtained using an Igasorp Hiden Isochema instrument (serial number IGA-SA-066). After an initial stabilization period, at least two isotherms (at 25° C.) were obtained for each sample: a moisture sorption from 0 to 95% relative humidity and moisture desorption from 95% relative humidity to dryness. Both isotherms were performed in 10% humidity steps, with a minimum time of 10 minutes and a maximum time of 30 minutes for each step.

[2] = Differential scanning calorimetry (DSC) thermogram, stability; conditions: heated 30 to 350° C. at 10° C./min; result in words
Procedure: The differential scanning calorimetry (DSC) thermograms analyses were obtained using a DSC-821 Mettler-Toledo instrument, serial number 5117423874. Samples were weighed into an aluminium pan, an aluminium lid placed on top of the sample and compressed with a brass rod. Samples were equilibrated at 30° C. and heated at 10° C./min to 350° C. The instrument was calibrated using indium and zinc standards.

Solubility in water compared with the corresponding free acids (Water-solubility test; result in words)	Water Solubility @ 25° C. (mg/mL as acid) (Water-solubility test)	Mass increase at 80% relative humidity (DVS) ([1]; 25° C.) [%]	Mass increase at 90% relative humidity (DVS) ([1]; 25° C.) [%]	Hygroscopicity [1]	Hysteresis in DVS sorption/desorption [1]	Stability (polymorph conversion / decomposition) from DSC thermogram [2]	Mass increase at 95% relative humidity (DVS) ([1]; 95% RH, 25° C.) [%]	SMILES
	0.030							O=C(O)c1cc(C2CC2)ccc1Nc1cnc(-c2c(F)cccc2F)nc1 [Example C1, 5-cyclopropyl-2-{[2-(2,6-difluorophenyl)pyrimidin-5-yl]amino}benzoic acid, reference compound]
	0.003							O=C(O)c1cc(C2CC2)ccc1Nc1cnc(-c2ccccc2C(F)(F)F)nc1 [Example C2, 5-cyclopropyl-2-{[2-(2-(trifluoromethyl)phenyl)pyrimidin-5-yl]amino}benzoic acid, reference compound]
	0.007							Cc1ccc(Nc2ccc(-c3cccc(F)c3F)nc2)c(C(=O)O)c1 [Example C3, 5-methyl-2-{[6-(2,3-difluorophenyl)pyridin-3-yl]amino}benzoic acid, reference compound]

Further lines, the compound ahead of its results:

SMILES	Solubility in water compared with the corresponding free acids (Water-solubility test; result in words)	Water Solubility @ 25° C. (mg/mL as acid) (Water-solubility test)	Mass increase at 80% relative humidity (DVS) ([1]; 25° C.) [%]	Mass increase at 90% relative humidity (DVS) ([1]; 25° C.) [%]	Hygroscopicity [1]	Hysteresis in DVS sorption/desorption [1]	Stability (polymorph conversion / decomposition) from DSC thermogram [2]	Mass increase at 95% relative humidity (DVS) ([1]; 95% RH, 25° C.) [%]
O=C(O)c1cc(C2CC2)ccc1Nc1cnc(-c2c(F)cccc2F)nc1 [Example 1, 5-cyclopropyl-2-{[2-(2,6-difluorophenyl)pyrimidin-5-yl]amino}benzoic acid, tromethamine salt]	Particularly good results	1.780	1.2	6.1	not hygroscopic	no hysteresis	high stability	
O=C(O)c1cc(C2CC2)ccc1Nc1cnc(-c2ccccc2C(F)(F)F)nc1 [Example 2, 5-cyclopropyl-2-{[2-(2-(trifluoromethyl)phenyl)pyrimidin-5-yl]amino}benzoic acid, tromethamine salt]		0.139	3.4		slightly hygroscopic	no hysteresis	high stability	7.0
Cc1ccc(Nc2ccc(-c3cccc(F)c3F)nc2)c(C(=O)O)c1 [Example 3, 5-methyl-2-{[6-(2,3-difluorophenyl)pyridin-3-yl]amino}benzoic acid, tromethamine salt]		0.540	1.8	5.1	not hygroscopic	no hysteresis	high stability	
